The values below come from article PMC8112869, “Therapeutic inhibition of keratinocyte TRPV3 sensory channel by local anesthetic dyclonine” (eLife, 2021).

The IC50 is the concentration that gives 50% inhibition.

One experiment concerns the target T1, TRPV3 F666A (Mus musculus, UniProt Q8K424, F666A).
T1 construct: expressed in transfected cells; host or cells: HEK 293T
The experiment can be described thus: Whole-cell recording of TRPV3 mutant F666A in HEK 293T cells. Conditions: 2-APB (1 mM)-evoked, –60 mV, read-out: IC50 for inhibition of TRPV3 mutant. In kind it is cell-based. The text has this: (§1) The WT mouse TRPV3 (mTRPV3), human TRPV3 (hTRPV3), rat TRPV1, rat TRPV2, rat TRPM8, and mouse TRPA1 cDNAs were generously provided by Dr. Feng Qin (State University of New York at Buffalo, Buffalo, USA). The GFP-mTRPV3 WT and the mutants (mTRPV3-G573S and mTRPV3-G573C) in pcDNA4/TO vector were gifts from Dr. Michael X Zhu (The University of Texas Health Science Center at Houston, Houston, USA). The WT fTRPV3 was kindly provided by Dr. Makoto Tominaga (Department of Physiological Sciences, SOKENDAI, Okazaki, Japan). All mutations were made using the overlap-extension polymerase chain reaction method as previously described ([Tian et al., 2019]). The resulting mutations were then verified by DNA sequencing. […]
(§2) Conventional whole-cell and excised patch-clamp recording methods were used. […] For a subset of recordings, currents were amplified using an Axopatch 200B amplifier (Molecular Devices, Sunnyvale, CA) and recorded through a BNC-2090/MIO acquisition system (National Instruments, Austin, TX) using QStudio developed by Dr. Feng Qin at State University of New York at Buffalo. […] As determined by the conductance tests, the solution around a patch under study was fully controlled by the application of a flow rate of 100 μl/min or greater. […]

The target in the next experiment is T2, TRPV3 N643A (Mus musculus, UniProt Q8K424, N643A).
T2 construct: expressed in transfected cells; host or cells: HEK 293T
Kind of experiment: Whole-cell recording of TRPV3 mutant N643A in HEK 293T cells. The experiment is classed as cell-based. The conditions noted are these: 2-APB (1 mM)-evoked, –60 mV, read-out: IC50 for inhibition of TRPV3 mutant.
Excerpt: as §1, §2

Another experiment has as its system C57B/6 mice. Kind of experiment: Carvacrol-induced itch-scratching behavior in mice. In kind it is in vivo, mouse. The method, then: To assess itch-scratching behaviors, the hair of the rostral part of the mouse’s right neck was shaved using an electric hair clipper 24 hr before the start of experiments. Trpv3^-/- mice have been described previously ([Wang et al., 2021]). Scratching behaviors were recorded on video. The number of itch-scratching bouts was counted through video playback analysis. One scratching bout was defined as an episode in which a mouse lifted its right hind limb to the injection site and scratched continuously for any time length until this limb was returned to the floor or mouth ([Wilson et al., 2013]). All behavioral experiments were conducted in a double-blind manner. […] [Sun and Dong, 2016]).

The target of a further experiment is T3, TRPM8 (Rattus norvegicus, UniProt Q8R455).
T3 construct: expressed in transfected cells; host or cells: HEK 293T
The experiment can be described thus: Whole-cell recording of menthol-activated TRPM8 in HEK 293T cells. In kind it is cell-based.
Excerpt: as §1, §2

Another experiment addresses T4, TRPV3 I674A (Mus musculus, UniProt Q8K424, I674A).
T4 construct: expressed in transfected cells; host or cells: HEK 293T
Kind of experiment: Whole-cell recording of TRPV3 mutant I674A in HEK 293T cells. The conditions noted are these: 2-APB (1 mM)-evoked, –60 mV, read-out: IC50 for inhibition of TRPV3 mutant. The experiment is classed as cell-based.
Excerpt: as §1, §2

A further experiment addresses T5, TRPA1 (Mus musculus, UniProt Q8BLA8).
T5 construct: expressed in transfected cells; host or cells: HEK 293T
The experiment can be described thus: Whole-cell recording of AITC-activated TRPA1 in HEK 293T cells. The experiment is classed as cell-based.
Excerpt: as §1, §2

In the next experiment the target is T6, TRPV3 I659A (Mus musculus, UniProt Q8K424, I659A).
T6 construct: expressed in transfected cells; host or cells: HEK 293T
Kind of experiment: Whole-cell recording of TRPV3 mutant I659A in HEK 293T cells. The experiment is classed as cell-based. The conditions noted are these: 2-APB (1 mM)-evoked, –60 mV, read-out: IC50 for inhibition of TRPV3 mutant.
Excerpt: as §1, §2

T5 sequence (Q8BLA8 whole entry): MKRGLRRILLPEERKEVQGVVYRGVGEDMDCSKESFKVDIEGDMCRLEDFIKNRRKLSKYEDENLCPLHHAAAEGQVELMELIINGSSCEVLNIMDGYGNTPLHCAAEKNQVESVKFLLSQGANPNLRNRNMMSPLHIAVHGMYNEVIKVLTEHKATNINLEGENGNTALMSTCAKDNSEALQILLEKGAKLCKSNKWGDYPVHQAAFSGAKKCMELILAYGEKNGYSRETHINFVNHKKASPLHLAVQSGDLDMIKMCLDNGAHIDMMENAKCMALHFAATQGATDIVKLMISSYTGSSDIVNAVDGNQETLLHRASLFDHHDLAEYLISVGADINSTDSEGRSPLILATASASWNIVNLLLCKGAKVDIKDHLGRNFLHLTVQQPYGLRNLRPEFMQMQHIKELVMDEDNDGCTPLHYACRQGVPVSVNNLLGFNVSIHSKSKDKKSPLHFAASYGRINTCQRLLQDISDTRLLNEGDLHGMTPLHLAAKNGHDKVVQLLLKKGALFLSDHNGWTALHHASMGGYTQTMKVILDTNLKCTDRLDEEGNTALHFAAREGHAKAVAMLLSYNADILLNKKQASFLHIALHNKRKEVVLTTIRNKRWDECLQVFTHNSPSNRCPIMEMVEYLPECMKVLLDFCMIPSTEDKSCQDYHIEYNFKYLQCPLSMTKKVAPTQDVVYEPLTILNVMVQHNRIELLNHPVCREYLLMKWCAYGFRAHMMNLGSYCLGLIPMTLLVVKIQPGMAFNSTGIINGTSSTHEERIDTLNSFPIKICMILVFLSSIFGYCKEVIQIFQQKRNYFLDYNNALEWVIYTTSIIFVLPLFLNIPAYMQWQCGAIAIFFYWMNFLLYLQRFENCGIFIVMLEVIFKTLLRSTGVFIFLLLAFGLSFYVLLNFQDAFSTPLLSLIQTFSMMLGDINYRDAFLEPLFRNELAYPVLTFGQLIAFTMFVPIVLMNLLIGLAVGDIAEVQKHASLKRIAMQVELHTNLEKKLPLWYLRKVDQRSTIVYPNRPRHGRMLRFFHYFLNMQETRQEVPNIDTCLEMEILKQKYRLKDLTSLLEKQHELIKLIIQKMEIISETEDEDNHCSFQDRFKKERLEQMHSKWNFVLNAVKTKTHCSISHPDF
T3 sequence (Q8R455 whole entry): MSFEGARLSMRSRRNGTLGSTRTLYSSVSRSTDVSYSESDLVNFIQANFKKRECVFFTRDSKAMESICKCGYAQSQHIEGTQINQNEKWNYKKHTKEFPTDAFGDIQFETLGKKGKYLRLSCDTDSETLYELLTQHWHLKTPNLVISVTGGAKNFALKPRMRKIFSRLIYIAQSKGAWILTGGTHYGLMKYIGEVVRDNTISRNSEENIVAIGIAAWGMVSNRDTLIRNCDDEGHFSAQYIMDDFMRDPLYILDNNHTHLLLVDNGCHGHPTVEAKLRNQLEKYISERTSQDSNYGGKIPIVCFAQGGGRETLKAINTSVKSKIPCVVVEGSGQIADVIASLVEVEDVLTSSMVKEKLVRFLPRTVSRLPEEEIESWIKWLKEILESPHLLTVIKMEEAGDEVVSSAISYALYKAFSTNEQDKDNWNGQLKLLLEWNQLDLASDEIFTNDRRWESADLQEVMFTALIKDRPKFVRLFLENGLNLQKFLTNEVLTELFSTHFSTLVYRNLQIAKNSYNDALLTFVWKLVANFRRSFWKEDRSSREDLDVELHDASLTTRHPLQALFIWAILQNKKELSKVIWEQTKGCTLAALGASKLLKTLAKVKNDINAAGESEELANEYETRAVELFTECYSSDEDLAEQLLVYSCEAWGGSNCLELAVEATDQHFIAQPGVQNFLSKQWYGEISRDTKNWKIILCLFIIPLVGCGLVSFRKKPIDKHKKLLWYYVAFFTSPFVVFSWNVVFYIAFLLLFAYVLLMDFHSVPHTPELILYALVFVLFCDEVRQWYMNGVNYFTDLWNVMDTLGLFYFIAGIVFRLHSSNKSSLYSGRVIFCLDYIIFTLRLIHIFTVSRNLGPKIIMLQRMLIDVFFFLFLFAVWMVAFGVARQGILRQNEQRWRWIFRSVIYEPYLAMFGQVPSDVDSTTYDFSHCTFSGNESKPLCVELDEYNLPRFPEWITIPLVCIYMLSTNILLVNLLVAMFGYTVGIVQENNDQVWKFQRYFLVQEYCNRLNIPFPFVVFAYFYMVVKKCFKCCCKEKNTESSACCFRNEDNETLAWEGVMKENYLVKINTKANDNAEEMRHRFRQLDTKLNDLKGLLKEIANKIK
T6 sequence (Q8K424 whole entry I659A): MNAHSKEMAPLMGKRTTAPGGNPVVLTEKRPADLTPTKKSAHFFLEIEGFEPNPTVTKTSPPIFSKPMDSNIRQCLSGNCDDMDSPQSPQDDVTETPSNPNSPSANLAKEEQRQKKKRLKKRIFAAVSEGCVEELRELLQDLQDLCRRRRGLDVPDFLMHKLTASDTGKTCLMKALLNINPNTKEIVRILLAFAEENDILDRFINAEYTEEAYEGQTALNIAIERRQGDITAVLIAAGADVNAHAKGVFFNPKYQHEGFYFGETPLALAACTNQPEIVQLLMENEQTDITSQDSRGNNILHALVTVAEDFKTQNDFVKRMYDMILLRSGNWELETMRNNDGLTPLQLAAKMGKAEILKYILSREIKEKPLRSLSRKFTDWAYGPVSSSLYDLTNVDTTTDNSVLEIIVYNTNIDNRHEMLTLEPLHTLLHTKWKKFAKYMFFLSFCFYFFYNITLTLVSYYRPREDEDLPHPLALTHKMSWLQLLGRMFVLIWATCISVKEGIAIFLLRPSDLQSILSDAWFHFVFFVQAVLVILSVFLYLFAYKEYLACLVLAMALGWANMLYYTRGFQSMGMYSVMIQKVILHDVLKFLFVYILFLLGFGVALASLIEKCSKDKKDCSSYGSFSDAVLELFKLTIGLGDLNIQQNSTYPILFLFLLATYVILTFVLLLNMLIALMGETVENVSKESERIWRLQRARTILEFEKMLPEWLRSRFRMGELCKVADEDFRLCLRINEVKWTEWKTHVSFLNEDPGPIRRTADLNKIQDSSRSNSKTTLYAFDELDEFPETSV
T2 sequence (Q8K424 whole entry N643A): as the sequence (Q8K424 whole entry I659A) above, with N643A, A659I counted along it
T4 sequence (Q8K424 whole entry I674A): as the sequence (Q8K424 whole entry I659A) above, with A659I, I674A counted along it
T1 sequence (Q8K424 whole entry F666A): as the sequence (Q8K424 whole entry I659A) above, with A659I, F666A counted along it

As to `CCCCOc1ccc(C(=O)CCN2CCCCC2)cc1` [dyclonine], the IC50 at TRPV3 F666A amounted to 414 ± 15.7 µM; at TRPV3 N643A, 37.7 ± 5.1 µM; at TRPV3 I674A, 15.1 ± 2.1 µM; at TRPV3 I659A, 0.56 ± 0.06 µM. Also, the “scratching bouts over 30 min” value with C57B/6 mice (50 μl dyclonine 1 μM intradermal 30 min before carvacrol (0.1%, 50 μl)) came out at 130.0 ± 20.3; in the experiment on C57B/6 mice (50 μl dyclonine 10 μM intradermal 30 min before carvacrol (0.1%, 50 μl)), 82.0 ± 15.0; in the experiment on C57B/6 mice (50 μl dyclonine 50 μM intradermal 30 min before carvacrol (0.1%, 50 μl)), 18.0 ± 8.0. The “Hill coefficient nH” value at TRPM8 is 1.2 ± 0.20; on TRPA1, 1.3 ± 0.15. Also, the “reduction in current amplitude” value on TRPM8 (10 μM dyclonine, menthol-activated) was 9% ± 2%; at TRPA1 (10 μM dyclonine, AITC-activated), 5% ± 1%.
